Results as given in PubChem BioAssay (NCI).
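Compound exposure: 48 hours, 5 concentrations, 96-well plates. GI50 = concentration required for 50% inhibition of growth. At the TGI there is no net growth.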

Legend:
Experiment in all cases: NCI anticancer screen, dose series, 48 h
[1] = tested on: LOX IMVI melanoma
[2] = tested on: EKVX NSCLC
[3] = tested on: COLO 205 colon
[4] = tested on: BT-549 breast
[5] = tested on: OVCAR-5 ovarian
[6] = tested on: MDA-MB-231 breast
[7] = tested on: TK-10 renal
[8] = tested on: T-47D breast
[9] = tested on: CCRF-CEM leukemia
[10] = tested on: HOP-62 NSCLC
[11] = tested on: OVCAR-4 ovarian
[12] = tested on: HCC-2998 colon
[13] = tested on: SNB-19 CNS
[14] = tested on: UO-31 renal
[15] = tested on: KM12 colon
[16] = tested on: SF-268 CNS
[17] = tested on: HS 578T breast
[18] = tested on: M14 melanoma
[19] = tested on: U251 CNS
[20] = tested on: HL-60(TB) leukemia
[21] = tested on: NCI-H522 lung
[22] = tested on: K-562 leukemia
[23] = tested on: MALME-3M melanoma
[24] = tested on: A549 NSCLC
[25] = tested on: MOLT-4 leukemia
[26] = tested on: SK-MEL-2 melanoma
[27] = tested on: A498 renal
[28] = tested on: SF-295 CNS
[29] = tested on: NCI-H460 lung
[30] = tested on: RXF 393 renal
[31] = tested on: IGROV1 ovarian
[32] = tested on: SN12C renal
[33] = tested on: OVCAR-3 ovarian
[34] = tested on: NCI-H23 lung
[35] = tested on: HCT-116 colon
[36] = tested on: SR leukemia
[37] = tested on: NCI/ADR-RES ovarian
[38] = tested on: DU-145 prostate
[39] = tested on: SK-MEL-5 melanoma
[40] = tested on: HCT-15 colon
[41] = tested on: CAKI-1 renal
[42] = tested on: SF-539 CNS
[43] = tested on: SW-620 colon
[44] = tested on: SK-OV-3 ovarian
[45] = tested on: SNB-75 CNS
[46] = tested on: UACC-62 melanoma
[47] = tested on: MDA-MB-435
[48] = tested on: SK-MEL-28 melanoma
[49] = tested on: OVCAR-8 ovarian
[50] = tested on: NCI-H226 lung
[51] = tested on: ACHN renal
[52] = tested on: UACC-257 melanoma
[53] = tested on: MDA-MB-468 breast
[54] = tested on: MCF7 breast
[55] = tested on: 786-0 renal
[56] = tested on: HT29 colon
[57] = tested on: PC-3 prostate
[58] = tested on: HOP-92 NSCLC
[59] = tested on: RPMI-8226 leukemia

How did the GI50 [1] turn out when CC12OOC(C)(OO1)C2CCC(=O)NCCCNc1ccnc2cc(Cl)ccc12 (stereo not drawn) was run?
Its GI50 is 3.06 µM.

And the TGI [1]?
Its TGI is 5.85 µM.

What about the GI50 [2] of the same molecule?
Its GI50 is 3.8 µM.

And the TGI [2]?
The TGI was 7.99 µM.

What about the GI50 [3] of the same molecule?
Its GI50 is 3.69 µM.

And the TGI [3]?
The TGI was 7.68 µM.

What about the GI50 [4] of the same molecule?
Its GI50 is > 20 µM.

What about the TGI [4] of the same molecule?
Its TGI is > 20 µM.

And the GI50 [5]?
Its GI50 is > 20 µM.

And the TGI [5]?
Its TGI is > 20 µM.

What about the GI50 [6] of the same molecule?
The GI50 was 8.26 µM.

What about the TGI [6] of the same molecule?
The TGI was > 20 µM.

And the GI50 [7]?
The GI50 was 4.62 µM.

What about the TGI [7] of the same molecule?
Its TGI is 14.5 µM.

And the GI50 [8]?
The GI50 was 4.35 µM.

What about the TGI [8] of the same molecule?
Its TGI is 13.4 µM.

And the GI50 [9]?
Its GI50 is 4.51 µM.

And the TGI [9]?
Its TGI is 14.1 µM.

What about the GI50 [10] of the same molecule?
The GI50 was > 20 µM.

What about the TGI [10] of the same molecule?
The TGI was > 20 µM.

And the GI50 [11]?
The GI50 was 3.19 µM.

And the TGI [11]?
Its TGI is 6.64 µM.

And the GI50 [12]?
Its GI50 is > 20 µM.

And the TGI [12]?
Its TGI is > 20 µM.

What about the GI50 [13] of the same molecule?
The GI50 was > 20 µM.

And the TGI [13]?
The TGI was > 20 µM.

And the GI50 [14]?
The GI50 was 3.1 µM.

And the TGI [14]?
Its TGI is 5.78 µM.

And the GI50 [15]?
Its GI50 is > 20 µM.

What about the TGI [15] of the same molecule?
The TGI was > 20 µM.

What about the GI50 [16] of the same molecule?
Its GI50 is > 20 µM.

What about the TGI [16] of the same molecule?
The TGI was > 20 µM.

And the GI50 [17]?
Its GI50 is > 20 µM.

What about the TGI [17] of the same molecule?
The TGI was > 20 µM.

What about the GI50 [18] of the same molecule?
The GI50 was 3.66 µM.

What about the TGI [18] of the same molecule?
The TGI was 7.4 µM.

What about the GI50 [19] of the same molecule?
Its GI50 is > 20 µM.

And the TGI [19]?
The TGI was > 20 µM.

What about the GI50 [20] of the same molecule?
The GI50 was 3.6 µM.

What about the TGI [20] of the same molecule?
Its TGI is 8.63 µM.

And the GI50 [21]?
Its GI50 is 2.66 µM.

And the TGI [21]?
The TGI was 5.59 µM.

What about the GI50 [22] of the same molecule?
Its GI50 is 4.28 µM.

And the TGI [22]?
Its TGI is 10.1 µM.

What about the GI50 [23] of the same molecule?
The GI50 was 3.35 µM.

And the TGI [23]?
Its TGI is 6.31 µM.

And the GI50 [24]?
The GI50 was 4.22 µM.

What about the TGI [24] of the same molecule?
The TGI was 9.86 µM.

What about the GI50 [25] of the same molecule?
Its GI50 is 8.6 µM.

What about the TGI [25] of the same molecule?
The TGI was > 20 µM.

What about the GI50 [26] of the same molecule?
Its GI50 is > 20 µM.

What about the TGI [26] of the same molecule?
Its TGI is > 20 µM.

And the GI50 [27]?
The GI50 was > 20 µM.

And the TGI [27]?
The TGI was > 20 µM.

What about the GI50 [28] of the same molecule?
The GI50 was > 20 µM.

What about the TGI [28] of the same molecule?
The TGI was > 20 µM.

What about the GI50 [29] of the same molecule?
Its GI50 is 12.7 µM.

What about the TGI [29] of the same molecule?
The TGI was > 20 µM.

And the GI50 [30]?
Its GI50 is 3.69 µM.

And the TGI [30]?
Its TGI is 9.56 µM.

And the GI50 [31]?
The GI50 was 7.07 µM.

What about the TGI [31] of the same molecule?
The TGI was > 20 µM.

What about the GI50 [32] of the same molecule?
Its GI50 is > 20 µM.

What about the TGI [32] of the same molecule?
The TGI was > 20 µM.

What about the GI50 [33] of the same molecule?
The GI50 was 2.97 µM.

What about the TGI [33] of the same molecule?
The TGI was 5.83 µM.

And the GI50 [34]?
The GI50 was > 20 µM.

What about the TGI [34] of the same molecule?
Its TGI is > 20 µM.

What about the GI50 [35] of the same molecule?
The GI50 was 5.56 µM.

And the TGI [35]?
The TGI was 17.6 µM.

What about the GI50 [36] of the same molecule?
The GI50 was 3.88 µM.

And the TGI [36]?
Its TGI is 8.71 µM.

What about the GI50 [37] of the same molecule?
Its GI50 is > 20 µM.

What about the TGI [37] of the same molecule?
The TGI was > 20 µM.

What about the GI50 [38] of the same molecule?
Its GI50 is 3.58 µM.

And the TGI [38]?
Its TGI is 6.52 µM.

What about the GI50 [39] of the same molecule?
The GI50 was > 20 µM.

What about the TGI [39] of the same molecule?
Its TGI is > 20 µM.

What about the GI50 [40] of the same molecule?
Its GI50 is 4.03 µM.

What about the TGI [40] of the same molecule?
The TGI was 9.17 µM.

What about the GI50 [41] of the same molecule?
The GI50 was 3.31 µM.

And the TGI [41]?
The TGI was 6.07 µM.

What about the GI50 [42] of the same molecule?
Its GI50 is 11.3 µM.

And the TGI [42]?
Its TGI is > 20 µM.

What about the GI50 [43] of the same molecule?
The GI50 was 4.3 µM.

What about the TGI [43] of the same molecule?
Its TGI is > 20 µM.

What about the GI50 [44] of the same molecule?
Its GI50 is > 20 µM.

And the TGI [44]?
Its TGI is > 20 µM.

And the GI50 [45]?
Its GI50 is > 20 µM.

What about the TGI [45] of the same molecule?
The TGI was > 20 µM.

What about the GI50 [46] of the same molecule?
Its GI50 is 12.6 µM.

What about the TGI [46] of the same molecule?
The TGI was > 20 µM.

What about the GI50 [47] of the same molecule?
The GI50 was 4.84 µM.

And the TGI [47]?
Its TGI is 16.2 µM.

And the GI50 [48]?
Its GI50 is > 20 µM.

What about the TGI [48] of the same molecule?
Its TGI is > 20 µM.

And the GI50 [49]?
Its GI50 is > 20 µM.

What about the TGI [49] of the same molecule?
Its TGI is > 20 µM.

What about the GI50 [50] of the same molecule?
Its GI50 is > 20 µM.

And the TGI [50]?
The TGI was > 20 µM.

And the GI50 [51]?
The GI50 was 3.45 µM.

And the TGI [51]?
Its TGI is 6.22 µM.

And the GI50 [52]?
Its GI50 is 9.4 µM.

And the TGI [52]?
Its TGI is > 20 µM.

What about the GI50 [53] of the same molecule?
The GI50 was 3.6 µM.

What about the TGI [53] of the same molecule?
Its TGI is 8.97 µM.

What about the GI50 [54] of the same molecule?
The GI50 was 8.11 µM.

What about the TGI [54] of the same molecule?
The TGI was > 20 µM.

What about the GI50 [55] of the same molecule?
The GI50 was 3.5 µM.

And the TGI [55]?
The TGI was 7.16 µM.

And the GI50 [56]?
The GI50 was 3.86 µM.

What about the TGI [56] of the same molecule?
The TGI was 7.47 µM.

And the GI50 [57]?
The GI50 was > 20 µM.

And the TGI [57]?
Its TGI is > 20 µM.

What about the GI50 [58] of the same molecule?
The GI50 was 3.34 µM.

And the TGI [58]?
The TGI was 6.87 µM.

What about the GI50 [59] of the same molecule?
Its GI50 is 9.51 µM.

And the TGI [59]?
Its TGI is > 20 µM.
